Holding throughout (test): HDAC enzyme inhibition assay
Holding throughout (assay type): biochemical

The target in test [1] is T1, HDAC10 (Homo sapiens, UniProt Q969S8).
T1 sequence (Q969S8 1-669): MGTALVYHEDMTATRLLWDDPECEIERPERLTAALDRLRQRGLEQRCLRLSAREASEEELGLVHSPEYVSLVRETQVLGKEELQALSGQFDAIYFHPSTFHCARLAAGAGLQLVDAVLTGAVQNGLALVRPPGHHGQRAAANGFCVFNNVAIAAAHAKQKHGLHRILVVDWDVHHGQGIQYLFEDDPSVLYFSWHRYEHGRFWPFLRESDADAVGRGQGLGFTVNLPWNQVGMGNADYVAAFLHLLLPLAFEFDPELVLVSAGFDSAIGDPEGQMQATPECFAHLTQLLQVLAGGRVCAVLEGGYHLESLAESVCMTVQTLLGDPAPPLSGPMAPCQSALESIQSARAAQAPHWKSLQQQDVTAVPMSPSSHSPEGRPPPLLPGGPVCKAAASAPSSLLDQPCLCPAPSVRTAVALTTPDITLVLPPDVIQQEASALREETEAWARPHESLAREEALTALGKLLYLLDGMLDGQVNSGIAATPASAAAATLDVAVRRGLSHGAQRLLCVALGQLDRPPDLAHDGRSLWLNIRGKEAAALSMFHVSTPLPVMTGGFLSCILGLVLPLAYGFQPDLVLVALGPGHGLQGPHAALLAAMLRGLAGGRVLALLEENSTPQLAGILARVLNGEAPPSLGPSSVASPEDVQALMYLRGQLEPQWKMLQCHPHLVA

Test [2] addresses HDAC3 (Homo sapiens, UniProt O15379).
Test [3] concerns the target T2, HDAC8 (Homo sapiens, UniProt Q9BY41).
T2 sequence (Q9BY41 1-377): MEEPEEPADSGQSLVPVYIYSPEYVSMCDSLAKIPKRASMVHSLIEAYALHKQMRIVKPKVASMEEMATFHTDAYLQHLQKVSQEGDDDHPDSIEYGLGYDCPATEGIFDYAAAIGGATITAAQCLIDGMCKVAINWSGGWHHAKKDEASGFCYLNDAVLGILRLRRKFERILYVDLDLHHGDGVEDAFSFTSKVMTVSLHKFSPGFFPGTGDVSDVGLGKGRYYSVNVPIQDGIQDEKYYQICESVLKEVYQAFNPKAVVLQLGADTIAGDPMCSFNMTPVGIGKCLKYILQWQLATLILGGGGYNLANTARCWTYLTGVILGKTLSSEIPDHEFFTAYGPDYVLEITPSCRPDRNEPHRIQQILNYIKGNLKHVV

Test [4] concerns the target HDAC1 (Homo sapiens, UniProt Q13547).
In test [5] the target is T3, HDAC6 (Homo sapiens, UniProt Q9UBN7).
T3 sequence (Q9UBN7 1-1215): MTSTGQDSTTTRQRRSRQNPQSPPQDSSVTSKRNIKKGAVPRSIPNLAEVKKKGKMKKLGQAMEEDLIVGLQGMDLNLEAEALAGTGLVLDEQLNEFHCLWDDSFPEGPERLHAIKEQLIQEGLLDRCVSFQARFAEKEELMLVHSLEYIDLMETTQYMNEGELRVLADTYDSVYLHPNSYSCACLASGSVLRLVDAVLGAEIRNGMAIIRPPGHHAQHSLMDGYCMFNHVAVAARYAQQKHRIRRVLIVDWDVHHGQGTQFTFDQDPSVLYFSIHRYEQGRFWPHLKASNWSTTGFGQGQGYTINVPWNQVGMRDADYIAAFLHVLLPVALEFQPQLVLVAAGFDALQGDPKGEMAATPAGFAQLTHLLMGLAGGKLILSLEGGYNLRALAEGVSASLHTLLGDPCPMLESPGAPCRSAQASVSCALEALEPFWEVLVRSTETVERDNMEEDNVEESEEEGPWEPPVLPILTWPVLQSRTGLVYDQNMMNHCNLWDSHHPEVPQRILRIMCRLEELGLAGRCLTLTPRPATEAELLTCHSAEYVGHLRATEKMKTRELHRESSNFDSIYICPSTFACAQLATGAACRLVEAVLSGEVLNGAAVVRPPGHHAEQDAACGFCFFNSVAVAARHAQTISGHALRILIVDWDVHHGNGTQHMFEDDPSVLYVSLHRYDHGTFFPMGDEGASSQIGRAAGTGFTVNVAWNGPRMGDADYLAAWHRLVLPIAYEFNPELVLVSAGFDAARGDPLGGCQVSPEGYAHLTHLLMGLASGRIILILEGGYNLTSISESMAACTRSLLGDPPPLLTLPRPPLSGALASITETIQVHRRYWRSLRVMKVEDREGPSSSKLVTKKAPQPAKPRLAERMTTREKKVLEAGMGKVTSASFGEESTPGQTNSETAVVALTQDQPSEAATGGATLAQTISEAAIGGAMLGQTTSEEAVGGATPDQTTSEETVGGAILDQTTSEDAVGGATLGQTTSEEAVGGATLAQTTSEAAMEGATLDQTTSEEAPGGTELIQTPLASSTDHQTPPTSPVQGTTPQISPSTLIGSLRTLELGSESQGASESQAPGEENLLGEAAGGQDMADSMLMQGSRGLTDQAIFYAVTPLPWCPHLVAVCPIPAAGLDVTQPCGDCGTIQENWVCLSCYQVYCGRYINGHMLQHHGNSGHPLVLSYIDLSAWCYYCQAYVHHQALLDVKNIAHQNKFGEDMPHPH

Test [6] concerns the target T4, HDAC11 (Homo sapiens, UniProt Q96DB2).
T4 sequence (Q96DB2 1-347): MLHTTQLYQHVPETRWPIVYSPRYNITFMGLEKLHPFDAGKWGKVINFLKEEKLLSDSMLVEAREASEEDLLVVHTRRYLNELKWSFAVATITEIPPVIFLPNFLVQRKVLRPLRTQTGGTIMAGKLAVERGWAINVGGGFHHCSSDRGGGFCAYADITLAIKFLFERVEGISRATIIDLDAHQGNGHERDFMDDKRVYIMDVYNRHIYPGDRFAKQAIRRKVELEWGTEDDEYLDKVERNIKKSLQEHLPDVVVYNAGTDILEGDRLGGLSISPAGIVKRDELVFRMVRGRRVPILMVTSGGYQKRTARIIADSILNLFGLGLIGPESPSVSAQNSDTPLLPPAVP

The target of test [7] is HDAC2 (Homo sapiens, UniProt Q92769).
The target of test [8] is HDAC4 (Homo sapiens, UniProt P56524).
For test [9], the target named is HDAC9 (Homo sapiens, UniProt Q9UKV0).

Here are results for three compounds from PMC9532562 (Acta Pharmaceutica Sinica. B, 2022).

As a reminder, the IC50 is the concentration that inhibits the measured activity by half. The low end stands for inhibition by little substance, the high end for a need for much substance.

Each structure is given as a SMILES string.

Sequence of HDAC3 (O15379 whole entry): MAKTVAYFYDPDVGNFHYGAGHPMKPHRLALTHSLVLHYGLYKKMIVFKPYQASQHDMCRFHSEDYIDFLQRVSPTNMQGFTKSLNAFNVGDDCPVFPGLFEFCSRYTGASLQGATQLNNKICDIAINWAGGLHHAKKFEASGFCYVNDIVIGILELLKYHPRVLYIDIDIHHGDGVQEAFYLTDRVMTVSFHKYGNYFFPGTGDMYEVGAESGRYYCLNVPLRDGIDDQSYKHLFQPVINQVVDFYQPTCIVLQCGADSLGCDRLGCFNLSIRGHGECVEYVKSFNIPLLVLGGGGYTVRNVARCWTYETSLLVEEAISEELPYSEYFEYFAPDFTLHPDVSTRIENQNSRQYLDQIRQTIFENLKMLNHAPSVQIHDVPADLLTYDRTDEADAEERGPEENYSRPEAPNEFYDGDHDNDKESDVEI
Sequence of HDAC3 (Q9Y618 395-489 partner limits assumed): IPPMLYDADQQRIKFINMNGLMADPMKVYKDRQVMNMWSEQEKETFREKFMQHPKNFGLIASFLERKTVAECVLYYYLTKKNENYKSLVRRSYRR
Sequence of HDAC1 (Q13547 whole entry): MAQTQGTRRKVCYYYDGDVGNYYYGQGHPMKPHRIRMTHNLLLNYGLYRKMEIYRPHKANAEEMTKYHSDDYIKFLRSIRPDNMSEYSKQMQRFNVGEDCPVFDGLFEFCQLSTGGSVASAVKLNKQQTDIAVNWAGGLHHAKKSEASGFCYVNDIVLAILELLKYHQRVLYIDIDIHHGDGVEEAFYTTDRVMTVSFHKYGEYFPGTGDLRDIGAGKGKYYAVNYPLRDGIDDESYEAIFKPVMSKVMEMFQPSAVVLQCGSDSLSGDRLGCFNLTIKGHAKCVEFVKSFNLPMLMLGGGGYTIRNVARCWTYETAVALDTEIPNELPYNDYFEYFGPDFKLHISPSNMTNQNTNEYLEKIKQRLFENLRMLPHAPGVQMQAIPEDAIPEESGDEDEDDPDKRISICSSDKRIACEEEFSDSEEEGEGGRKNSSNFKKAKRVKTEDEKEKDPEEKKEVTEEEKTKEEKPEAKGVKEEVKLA
Sequence of HDAC4 (P56524 whole entry): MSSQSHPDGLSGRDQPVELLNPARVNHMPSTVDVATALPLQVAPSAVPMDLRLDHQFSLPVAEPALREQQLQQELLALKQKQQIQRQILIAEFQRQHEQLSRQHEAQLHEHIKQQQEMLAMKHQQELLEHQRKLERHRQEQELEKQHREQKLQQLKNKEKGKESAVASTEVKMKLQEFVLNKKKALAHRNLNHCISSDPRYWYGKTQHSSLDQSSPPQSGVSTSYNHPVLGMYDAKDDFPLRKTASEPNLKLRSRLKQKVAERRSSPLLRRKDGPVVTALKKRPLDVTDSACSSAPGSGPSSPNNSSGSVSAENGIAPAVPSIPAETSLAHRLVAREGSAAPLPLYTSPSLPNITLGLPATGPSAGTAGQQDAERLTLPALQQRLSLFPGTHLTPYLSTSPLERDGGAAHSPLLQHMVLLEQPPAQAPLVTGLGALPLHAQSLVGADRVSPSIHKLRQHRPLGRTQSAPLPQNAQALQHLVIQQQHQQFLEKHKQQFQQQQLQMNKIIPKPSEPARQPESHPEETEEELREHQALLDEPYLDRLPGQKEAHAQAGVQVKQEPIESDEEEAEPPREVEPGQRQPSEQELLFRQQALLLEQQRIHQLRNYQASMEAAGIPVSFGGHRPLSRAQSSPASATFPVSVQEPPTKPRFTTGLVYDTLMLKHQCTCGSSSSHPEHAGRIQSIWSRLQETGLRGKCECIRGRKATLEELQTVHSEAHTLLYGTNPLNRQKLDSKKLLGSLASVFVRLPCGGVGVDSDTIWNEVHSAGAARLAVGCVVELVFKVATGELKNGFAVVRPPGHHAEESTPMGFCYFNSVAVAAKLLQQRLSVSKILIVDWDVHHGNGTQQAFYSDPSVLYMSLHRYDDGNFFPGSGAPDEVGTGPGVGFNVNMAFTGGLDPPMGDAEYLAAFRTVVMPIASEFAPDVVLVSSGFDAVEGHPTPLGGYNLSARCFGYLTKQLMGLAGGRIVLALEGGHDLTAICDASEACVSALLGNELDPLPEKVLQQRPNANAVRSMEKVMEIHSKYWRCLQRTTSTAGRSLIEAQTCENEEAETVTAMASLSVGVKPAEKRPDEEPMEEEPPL
Sequence of HDAC2 (Q92769 whole entry): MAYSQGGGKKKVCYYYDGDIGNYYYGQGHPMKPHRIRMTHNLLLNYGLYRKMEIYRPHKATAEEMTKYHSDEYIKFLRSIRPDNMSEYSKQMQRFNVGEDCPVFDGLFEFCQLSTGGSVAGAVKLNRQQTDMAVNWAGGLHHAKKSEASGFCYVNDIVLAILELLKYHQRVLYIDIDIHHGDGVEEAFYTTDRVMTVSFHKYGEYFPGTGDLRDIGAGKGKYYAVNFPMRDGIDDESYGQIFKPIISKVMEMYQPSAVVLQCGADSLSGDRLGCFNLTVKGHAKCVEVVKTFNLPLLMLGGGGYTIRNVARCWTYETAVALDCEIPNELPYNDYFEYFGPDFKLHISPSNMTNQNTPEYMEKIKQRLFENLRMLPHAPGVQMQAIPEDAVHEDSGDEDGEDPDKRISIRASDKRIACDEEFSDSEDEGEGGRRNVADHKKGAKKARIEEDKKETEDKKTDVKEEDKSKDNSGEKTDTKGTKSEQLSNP
Sequence of HDAC9 (Q9UKV0 whole entry): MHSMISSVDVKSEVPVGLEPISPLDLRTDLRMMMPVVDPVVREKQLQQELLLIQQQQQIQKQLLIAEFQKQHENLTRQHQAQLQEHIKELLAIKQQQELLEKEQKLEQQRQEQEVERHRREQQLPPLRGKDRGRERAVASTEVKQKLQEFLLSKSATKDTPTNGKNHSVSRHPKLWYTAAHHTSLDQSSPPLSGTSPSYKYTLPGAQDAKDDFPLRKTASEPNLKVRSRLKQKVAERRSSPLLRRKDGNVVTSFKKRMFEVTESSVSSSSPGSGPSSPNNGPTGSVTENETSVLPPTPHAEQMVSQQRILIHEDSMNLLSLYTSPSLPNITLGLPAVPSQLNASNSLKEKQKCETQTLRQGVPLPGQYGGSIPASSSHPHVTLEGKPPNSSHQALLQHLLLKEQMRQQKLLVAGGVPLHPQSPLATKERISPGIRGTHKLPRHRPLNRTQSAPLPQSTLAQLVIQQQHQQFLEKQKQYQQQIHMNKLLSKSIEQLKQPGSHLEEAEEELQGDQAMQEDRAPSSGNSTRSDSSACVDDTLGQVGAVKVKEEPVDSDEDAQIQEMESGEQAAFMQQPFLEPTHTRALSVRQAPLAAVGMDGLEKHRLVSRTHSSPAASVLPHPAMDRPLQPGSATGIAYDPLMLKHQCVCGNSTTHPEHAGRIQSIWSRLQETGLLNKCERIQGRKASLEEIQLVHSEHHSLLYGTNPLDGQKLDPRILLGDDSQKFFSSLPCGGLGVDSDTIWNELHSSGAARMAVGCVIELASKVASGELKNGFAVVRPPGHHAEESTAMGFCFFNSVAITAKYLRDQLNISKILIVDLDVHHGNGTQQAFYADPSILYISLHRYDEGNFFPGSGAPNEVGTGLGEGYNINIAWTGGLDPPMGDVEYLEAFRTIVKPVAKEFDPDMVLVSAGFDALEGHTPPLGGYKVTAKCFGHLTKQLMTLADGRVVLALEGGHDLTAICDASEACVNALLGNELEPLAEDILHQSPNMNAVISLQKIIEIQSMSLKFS

For the compound `O=C(NO)c1ccc(CN2CCCCc3ccccc32)c(F)c1` [15c, 3-Fluoro-N-hydroxy-4-((2,3,4,5-tetrahydro-1H-benzo[b]azepin-1-yl)methyl)benzamide], the IC50 in test [1] is 8.96 µM; in test [2], 2.96 µM; in [3] it was 1.68 µM; in [4] it was 7.82 µM; in test [5] it was 0.0052 µM; in test [6], 4.38 µM. For the same compound, the results for the IC50 in test [7], in test [8] and in test [9] were over 10 µM, 2.12 µM and 3.15 µM, respectively. In addition, the “selectivity for HDAC6 over other HDAC isoforms” value in test [5] (HDAC6 vs other HDAC isoforms) is reported as over 119 fold.
Regarding `O=C(NO)c1ccc(CN2CCCCc3ccccc32)cc1F` [15d, 2-Fluoro-N-hydroxy-4-((2,3,4,5-tetrahydro-1H-benzo[b]azepin-1-yl)methyl)benzamide], the IC50 in test [1] is over 10 µM; in [2] it was 2.46 µM; in test [3], 9.11 µM; in test [4], over 10 µM; in [5], 0.0251 µM; in test [6] it was 5.42 µM. In addition, the values for the IC50 in test [7], in [8] and in test [9] were over 10 µM, 3.56 µM and over 10 µM, respectively.
As for `COc1cc(C(=O)NO)ccc1CN1CCCCc2ccccc21` [15a, N-Hydroxy-3-methoxy-4-((2,3,4,5-tetrahydro-1H-benzo[b]azepin-1-yl)methyl)benzamide], the IC50 in [1] was over 10 µM; in test [2], over 10 µM; in test [3], over 10 µM; in [4], over 10 µM; in test [5], 6.46 µM; in test [6], 9.52 µM. In addition, the IC50 in [7], in test [8] and in test [9] was over 10 µM in each case.
